Measurements as given in US20080182895A1 (priority 2006, published 2008).
Like-named read-outs stand apart in the source and are kept apart here.

How the values were obtained:
Type in all cases: cell-based, Hepatitis C virus
1b, BB7-C316Y replicon = test: Replicon variant 3-day assay; details: for Fold Resistance: C316Y replicon vs 1b, BB7 (WT); for EC50: read-out: EC50 (μM or pg/ml) ± SD
Procedure: (§1) pBB7-replicon variant DNAs were linearized with Sca I, and in vitro transcription was performed using Ambion's […]® T7 High Yield Transcription kit (Austin, Tex.). Purified RNA transcripts were electroporated into Huh-7 cells in quadruplicates using a Biorad GENE PULSER® Electroporation System (Setting: 270V, 950 μF) (Hercules, Calif.). Stably transfected replicon variant cell lines were initially selected with 0.25 mg/ml G418 and stepped up to 1 mg/ml before further testing. One cell plate was stained with Crystal Violet to visualize the number of colonies and determine the colony formation efficiency. Individual cell clones from each plate were pooled and expanded for drug susceptibility testing.
(§2) The contribution of individual amino acid changes on drug resistance was assessed in replicon variants containing single amino acid mutations in NS5B in the background of the genotype 1b, BB7 adaptive replicon (Blight et al. (2000) Science 290:1972-74).
(§3) Drug susceptibility of the replicon-containing cells to various compounds was evaluated as described previously (Howe et al. (2004) Antimicrobial Agents Chem. 48:4813-21). Briefly, cells were treated with increasing concentrations of compounds in medium containing 2% FCS and no G418 for three days at 37° C. and 5% CO2. After incubation, total RNA from the replicon-containing cells was isolated. The levels of HCV, glyceraldehyde 3-phosphate dehydrogenase (GAPDH) and ribosomal (rRNA) RNAs were quantified using TAQMAN® (PE Applied Biosystems, Foster City, Calif.) reverse transcriptase PCR reactions. The amounts of HCV, 18S ribosomal, and GAPDH RNAs in each sample were estimated by comparing the number of cycles during the exponential phase of the PCR amplification with those in the corresponding standard curves. HCV RNA standards used for the construction of the standard curve were prepared by extracting the total RNA from the Clone A cells. The RNA sample was sent to National Genetics Institute to quantify HCV RNA. Total RNA extracted from Clone A cells was quantified by O.D.260 measurement and used for construction of the standard curves of rRNA and GAPDH. The concentrations of the compounds that inhibit 50% of the HCV RNA level (EC50) were determined using the MDL® LIFE SCIENCE WORKBENCH® (LSW) Data Analysis software (MDL Information Systems, San Leandro, Calif.) in Microsoft EXCEL®. The amounts of HCV or GAPDH RNAs in the samples were expressed as HCV RNA (copies) or GAPDH (ng), respectively, per μg of total RNA using rRNA as a marker for total RNA measurement.

1b, BB7 replicon (WT) = test: Replicon 3-day assay, wild type; details: read-out: EC50 (μM or pg/ml) ± SD
Procedure: as §1, §2, §3

[1] = test system: 1b, BB7 replicon variants with single NS5B mutations; test: Replicon variant assay, several variants taken together; details: replicon variants with HCV-796-associated mutations
Procedure: as §1, §2, §3

SMILES	Fold Resistance (1b, BB7-C316Y replicon) [fold]	EC50 (1b, BB7-C316Y replicon; C316Y replicon) [µM]	EC50 (1b, BB7 replicon (WT); 1b, BB7 (WT) replicon) [µM]	inhibition of the C316Y replicon compared with wild type (in words) (1b, BB7-C316Y replicon; C316Y replicon variant vs wild type replicon)	EC50 (1b, BB7-C316Y replicon; Hepatitis C virus) [µM]	EC50 (1b, BB7 replicon (WT); Hepatitis C virus) [µM]	susceptibility of HCV-796-resistant replicon variants to other antiviral agents (in words) ([1]; listed as Ribavirin)	susceptibility of HCV-796-resistant replicon variants to other antiviral agents (in words) ([1]; listed as ribavirin)
CCC[C@]1(CC(=O)O)OCCc2c1[nH]c1c(C)ccc(C#N)c21 [HCV-371, [(1R)-5-cyano-8-methyl-1-propyl-1,3,4,9-tetrahydropyano[3,4-b]indol-1-yl]acetic acid]	0.9	10.8 ± 0.8	12.2 ± 1.8	–	–	–	–	–
NC(=O)c1ncn([C@@H]2O[C@H](CO)[C@@H](O)[C@H]2O)n1 [RBV, 1-β-D-ribofuranosyl-1H-1,2,4-triazole-3-carboxamide, reference compound]	1.8	–	–	as efficiently as in the wild type replicon	201 ± 36.7	133 ± 40.5	inhibits	remained susceptible
